From patent US12122763B2, “Substituted piperidines for androgen receptor degradation” (UBIX THERAPEUTICS, INC., priority 2020, dated 2024)

Target: T1, Androgen Receptor (AR) protein (Homo sapiens, UniProt P10275, T878A)
T1 construct: endogenous in cells; host or cells: LNCaP
Assay: Androgen Receptor (AR) protein degradation assay in LNCaP cells, western blotting
Assay type: cell-based
Settings: 20 h; for inhibition at 0.01 µM: 0.01 μM compound; for inhibition at 0.1 µM: 0.1 μM compound; for inhibition at 1 µM: 1 μM compound
Outline: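 AR protein level was detected by western blot (ECL) against GAPDH or β-actin controls, with 8 μg lysate protein loaded per lane after BCA quantification. Lysates came from LNCaP cells exposed to test compound for 20 h, following 3 days of growth in RPMI/10% FBS.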

T1 sequence (P10275 whole entry T878A): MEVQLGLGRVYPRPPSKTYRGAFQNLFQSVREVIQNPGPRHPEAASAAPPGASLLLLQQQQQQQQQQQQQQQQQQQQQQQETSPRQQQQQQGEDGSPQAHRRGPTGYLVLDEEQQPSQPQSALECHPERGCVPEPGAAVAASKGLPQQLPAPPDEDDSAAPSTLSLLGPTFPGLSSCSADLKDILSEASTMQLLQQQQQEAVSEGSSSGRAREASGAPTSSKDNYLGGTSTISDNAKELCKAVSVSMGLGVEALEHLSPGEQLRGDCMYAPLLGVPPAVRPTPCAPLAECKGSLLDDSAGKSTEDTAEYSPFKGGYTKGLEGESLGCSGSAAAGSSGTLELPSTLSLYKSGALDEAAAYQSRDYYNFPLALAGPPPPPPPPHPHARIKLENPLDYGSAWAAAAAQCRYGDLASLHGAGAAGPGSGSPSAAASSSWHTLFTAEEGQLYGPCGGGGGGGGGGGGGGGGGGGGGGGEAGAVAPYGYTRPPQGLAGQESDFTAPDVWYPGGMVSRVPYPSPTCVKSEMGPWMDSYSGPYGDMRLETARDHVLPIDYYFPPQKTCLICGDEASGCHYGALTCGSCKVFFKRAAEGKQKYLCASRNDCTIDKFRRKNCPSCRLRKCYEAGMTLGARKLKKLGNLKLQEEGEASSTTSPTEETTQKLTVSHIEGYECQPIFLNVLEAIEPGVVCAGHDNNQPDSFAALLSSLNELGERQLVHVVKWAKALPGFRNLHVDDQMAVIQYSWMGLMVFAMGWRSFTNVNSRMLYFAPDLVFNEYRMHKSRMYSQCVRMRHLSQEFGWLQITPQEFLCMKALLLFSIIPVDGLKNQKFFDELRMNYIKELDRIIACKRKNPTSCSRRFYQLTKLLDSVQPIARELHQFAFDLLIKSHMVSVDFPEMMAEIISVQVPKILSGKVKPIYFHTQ
T1 sequence (Q96SW2 whole entry partner): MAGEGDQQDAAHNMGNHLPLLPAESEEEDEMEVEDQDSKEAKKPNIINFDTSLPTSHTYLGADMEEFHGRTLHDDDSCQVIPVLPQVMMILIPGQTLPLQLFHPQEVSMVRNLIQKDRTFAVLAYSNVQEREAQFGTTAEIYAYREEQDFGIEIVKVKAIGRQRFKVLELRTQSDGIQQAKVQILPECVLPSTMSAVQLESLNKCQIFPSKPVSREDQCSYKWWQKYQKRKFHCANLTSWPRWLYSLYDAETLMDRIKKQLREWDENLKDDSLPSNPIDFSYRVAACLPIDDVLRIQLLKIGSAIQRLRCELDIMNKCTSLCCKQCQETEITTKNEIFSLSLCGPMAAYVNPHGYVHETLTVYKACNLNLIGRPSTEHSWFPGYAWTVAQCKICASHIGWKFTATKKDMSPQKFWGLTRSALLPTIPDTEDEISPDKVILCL

| Structure (SMILES) | inhibition at 0.01 µM [%] | inhibition at 0.1 µM [%] | inhibition at 1 µM [%] | inhibition at 10 µM (10 μM compound) [%] |
| --- | --- | --- | --- | --- |
| N#Cc1ccc(N2CCC(C(=O)Nc3ccc(N4CCC(CCN5CC(N6CCN(c7ccc8c(n7)CN(C7CCC(=O)NC7=O)C8=O)CC6)C5)CC4)cn3)CC2)cc1C(F)(F)F (stereo not shown) [Example 98, 1-(4-cyano-3-(trifluoromethyl)phenyl)-N-(5-(4-(2-(3-(4-(6-(2,6-dioxopiperidin-3-yl)-5-oxo-6,7-dihydro-5H-pyrrolo[3,4-b]pyridin-2-yl)piperazin-1-yl)azetidin-1-yl)ethyl)piperidin-1-yl)pyridin-2-yl)piperidine-4-carboxamide] | 48 | 89 | 76 |  |
| N#Cc1ccc(N2CCC(C(=O)Nc3ccc(N4CCC(CCN5CCN(C6CN(c7ccc8c(c7)C(=O)N(C7CCC(=O)NC7=O)C8=O)C6)CC5)CC4)cn3)CC2)cc1C(F)(F)F (stereo not shown) [Example 99, 1-(4-cyano-3-(trifluoromethyl)phenyl)-N-(5-(4-(2-(4-(1-(2-(2,6-dioxopiperidin-3-yl)-1,3-dioxoisoindolin-5-yl)azetidin-3-yl)piperazin-1-yl)ethyl)piperidin-1-yl)pyridin-2-yl)piperidine-4-carboxamide] | 70 | 98 | 96 |  |
| N#Cc1ccc(N2CCC(C(=O)Nc3ccc(N4CCC(CCN5CCN(C6CN(c7ccc8c(n7)CN(C7CCC(=O)NC7=O)C8=O)C6)CC5)CC4)cn3)CC2)cc1C(F)(F)F (stereo not shown) [Example 100, 1-(4-cyano-3-(trifluoromethyl)phenyl)-N-(5-(4-(2-(4-(1-(6-(2,6-dioxopiperidin-3-yl)-5-oxo-6,7-dihydro-5H-pyrrolo[3,4-b]pyridin-2-yl)azetidin-3-yl)piperazin-1-yl)ethyl)piperidin-1-yl)pyridin-2-yl)piperidine-4-carboxamide] | 31 | 84 | 89 |  |
| N#Cc1ccc(N2CCC(C(=O)Nc3ccc(N4CCC(CCN5CC6CN(c7ccc8c(c7)C(=O)N(C7CCC(=O)NC7=O)C8=O)CC6C5)CC4)cn3)CC2)cc1C(F)(F)F (stereo not shown) [Example 101, 1-(4-cyano-3-(trifluoromethyl)phenyl)-N-(5-(4-(2-(5-(2-(2,6-dioxopiperidin-3-yl)-1,3-dioxoisoindolin-5-yl)hexahydropyrrolo[3,4-c]pyrrol-2(1H)-yl)ethyl)piperidin-1-yl)pyridin-2-yl)piperidine-4-carboxamide] | 63 | 95 | 95 |  |
| CN(CCC1CCN(c2ccc(NC(=O)C3CCN(c4ccc(C#N)c(C(F)(F)F)c4)CC3)nc2)CC1)C1CCN(c2ccc3c(c2)C(=O)N(C2CCC(=O)NC2=O)C3=O)CC1 (stereo not shown) [Example 102, 1-(4-cyano-3-(trifluoromethyl)phenyl)-N-(5-(4-(2-((1-(2-(2,6-dioxopiperidin-3-yl)-1,3-dioxoisoindolin-5-yl)piperidin-4-yl)(methyl)amino)ethyl)piperidin-1-yl)pyridin-2-yl)piperidine-4-carboxamide] | 35 | 90 | 92 |  |
| N#Cc1ccc(N2CCN(C(=O)Nc3ccc(N4CCC(CN5CC6(CCN(c7ccc8c(c7)C(=O)N(C7CCC(=O)NC7=O)C8=O)CC6)C5)CC4)nc3)CC2)cc1C(F)(F)F (stereo not shown) [Example 103, 4-(4-cyano-3-(trifluoromethyl)phenyl)-N-(6-(4-((7-(2-(2,6-dioxopiperidin-3-yl)-1,3-dioxoisoindolin-5-yl)-2,7-diazaspiro[3.5]nonan-2-yl)methyl)piperidin-1-yl)pyridin-3-yl)piperazine-1-carboxamide] | -9 | 15 | 44 | 58 |
